Experimental data: ChEMBL document CHEMBL5260850, “The exploration of aza-quinolines as hematopoietic prostaglandin D synthase (H-PGDS) inhibitors with low brain exposure” (Bioorg Med Chem, 2020)
The source made the active and inactive calls. The rule behind the calls is not given here.

Assays:
[1] = Inhibition of m-PGES (unknown origin); set-up: species or system Homo sapiens
[2] = Free AUC (0 to last) in mdx mouse administered orally 10 mins prior to unilateral eccentric contraction and QD for 43 days thereafter; type: ADME; conditions: in vivo, po, 1032 h, time 43 day
[3] = test system: Mus musculus; assay: Anti-inflammatory activity against mdx mouse assessed as inhibition of muscle function loss by measuring functional recovery of injured limb muscles administered orally 10 mins prior to unilateral eccentric contraction and QD for 43 days thereafter; conditions: 1032 h, route po, time 43 day
[4] = Free Cmax in eccentric contraction-induced muscle injury C57BL/6N mouse model administered orally 10 mins prior to unilateral eccentric contraction and QD for 16 days thereafter; type: ADME; conditions: in vivo, po, 384 h, time 16 day
[5] = Volume of distribution at steady state in mouse at 1 mg/kg, iv; type: ADME, organism-based; conditions: in vivo, read-out: Vdss
[6] = target: T1, Hematopoietic prostaglandin D synthase (Homo sapiens, UniProt O60760); assay: Binding affinity to human H-PGDS expressed in Escherichia coli BL21 DE3 cells assessed as equilibrium dissociation constant by measuring changes in intrinsic tryptophan fluorescence in presence of glutathione by fluorescence based analysis
T1 sequence (O60760 whole entry): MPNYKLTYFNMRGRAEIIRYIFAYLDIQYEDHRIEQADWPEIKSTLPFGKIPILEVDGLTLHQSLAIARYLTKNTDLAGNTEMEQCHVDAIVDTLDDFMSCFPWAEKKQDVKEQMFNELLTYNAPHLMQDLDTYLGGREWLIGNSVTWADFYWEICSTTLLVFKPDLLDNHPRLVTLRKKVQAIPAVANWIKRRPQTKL

[7] = Toxicity in Wistar Han rat assessed as cortical hypertrophy in adrenal gland at 100 mg/kg/day, po administered QD for 7 days by microscopic analysis; type: organism-based; conditions: in vivo, 168 h, time 7 day
[8] = target: 5-hydroxytryptamine receptor 3A (Homo sapiens) (UniProt P46098); conditions: dose <= 10000.0 nM
Chain of 5-hydroxytryptamine receptor 3A (Homo sapiens) (P46098 whole entry): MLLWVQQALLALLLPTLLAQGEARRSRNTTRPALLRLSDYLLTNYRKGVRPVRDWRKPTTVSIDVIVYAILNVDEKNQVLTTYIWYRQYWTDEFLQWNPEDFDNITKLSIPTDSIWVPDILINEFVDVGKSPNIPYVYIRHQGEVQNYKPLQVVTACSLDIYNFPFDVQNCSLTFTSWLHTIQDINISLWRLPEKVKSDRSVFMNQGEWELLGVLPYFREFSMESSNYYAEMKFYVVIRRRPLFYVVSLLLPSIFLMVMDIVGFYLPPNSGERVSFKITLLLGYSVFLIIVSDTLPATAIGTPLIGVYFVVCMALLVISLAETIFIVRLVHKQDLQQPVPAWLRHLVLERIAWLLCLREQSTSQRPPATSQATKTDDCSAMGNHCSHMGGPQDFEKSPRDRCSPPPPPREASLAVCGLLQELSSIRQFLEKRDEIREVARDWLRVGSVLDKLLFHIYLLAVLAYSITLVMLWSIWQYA
Description: Inhibition of 5-HT3 receptor (unknown origin) upto 10000 nM

[9] = Cmax in Wistar Han rat at 10 mg/kg/day, po QD for 7 days; type: ADME, organism-based; set-up: time 7 day, dose 10 mg/kg/day, route po; conditions: in vivo
[10] = target: 3',5'-cyclic-AMP phosphodiesterase 4B (Homo sapiens) (UniProt Q07343); conditions: dose <= 10000.0 nM
Chain of 3',5'-cyclic-AMP phosphodiesterase 4B (Homo sapiens) (Q07343 whole entry): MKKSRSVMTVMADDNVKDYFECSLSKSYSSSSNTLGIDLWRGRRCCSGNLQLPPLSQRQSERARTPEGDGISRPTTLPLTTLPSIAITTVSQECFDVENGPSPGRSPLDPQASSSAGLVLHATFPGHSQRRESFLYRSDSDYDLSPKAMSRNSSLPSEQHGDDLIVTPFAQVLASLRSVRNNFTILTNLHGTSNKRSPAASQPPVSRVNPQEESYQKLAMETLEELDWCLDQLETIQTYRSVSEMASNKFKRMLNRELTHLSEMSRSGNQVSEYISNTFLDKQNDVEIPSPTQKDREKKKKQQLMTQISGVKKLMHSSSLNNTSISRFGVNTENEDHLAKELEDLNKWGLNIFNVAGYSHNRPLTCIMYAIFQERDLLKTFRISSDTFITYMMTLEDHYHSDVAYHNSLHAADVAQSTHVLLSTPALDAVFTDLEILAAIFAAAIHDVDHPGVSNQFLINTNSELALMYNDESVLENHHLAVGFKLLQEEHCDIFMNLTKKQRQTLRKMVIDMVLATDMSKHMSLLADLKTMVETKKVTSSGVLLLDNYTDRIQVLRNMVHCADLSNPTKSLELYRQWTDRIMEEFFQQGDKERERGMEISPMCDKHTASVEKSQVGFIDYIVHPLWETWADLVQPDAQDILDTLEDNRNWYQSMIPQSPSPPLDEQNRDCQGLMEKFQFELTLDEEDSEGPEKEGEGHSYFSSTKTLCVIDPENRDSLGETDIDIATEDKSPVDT
Description: Inhibition of PDE4B (unknown origin) upto 10000 nM

[11] = target: 5-hydroxytryptamine receptor 2C (Homo sapiens) (UniProt P28335); conditions: dose <= 10000.0 nM
Chain of 5-hydroxytryptamine receptor 2C (Homo sapiens) (P28335 whole entry): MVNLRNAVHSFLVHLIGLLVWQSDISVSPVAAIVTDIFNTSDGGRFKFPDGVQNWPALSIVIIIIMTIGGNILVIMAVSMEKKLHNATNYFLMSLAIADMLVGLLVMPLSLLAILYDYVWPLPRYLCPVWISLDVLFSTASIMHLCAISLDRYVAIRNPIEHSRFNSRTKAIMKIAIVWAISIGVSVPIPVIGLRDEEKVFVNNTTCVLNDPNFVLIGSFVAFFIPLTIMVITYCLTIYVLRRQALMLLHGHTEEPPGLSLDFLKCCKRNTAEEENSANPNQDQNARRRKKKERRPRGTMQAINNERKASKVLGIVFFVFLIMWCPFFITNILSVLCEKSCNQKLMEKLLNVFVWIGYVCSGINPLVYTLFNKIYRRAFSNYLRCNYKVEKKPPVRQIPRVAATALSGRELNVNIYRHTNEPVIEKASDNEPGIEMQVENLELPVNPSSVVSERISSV
Description: Inhibition of 5-HT2C receptor (unknown origin) upto 10000 nM

[12] = Oral bioavailability in dog at 1 mg/kg; type: ADME, organism-based, Canis lupus familiaris; conditions: in vivo
[13] = test system: Mus musculus; assay: Anti-inflammatory activity against C57BL6/N mouse assessed as reduction in LPS-induced PGD2 level in skeletal muscle administered orally with compound and 1 hr later treated with LPS and measured after 30 mins by LC-MS/MS analysis; type: functional; conditions: route po, time 1.5 hrs
[14] = organism: Mus musculus; assay: animal or person; conditions: C57BL/6J, Mast cell, po, 1.117 h
[15] = target: Aurora kinase B (Homo sapiens) (UniProt Q96GD4); conditions: dose <= 10000.0 nM
Chain of Aurora kinase B (Homo sapiens) (Q96GD4 whole entry): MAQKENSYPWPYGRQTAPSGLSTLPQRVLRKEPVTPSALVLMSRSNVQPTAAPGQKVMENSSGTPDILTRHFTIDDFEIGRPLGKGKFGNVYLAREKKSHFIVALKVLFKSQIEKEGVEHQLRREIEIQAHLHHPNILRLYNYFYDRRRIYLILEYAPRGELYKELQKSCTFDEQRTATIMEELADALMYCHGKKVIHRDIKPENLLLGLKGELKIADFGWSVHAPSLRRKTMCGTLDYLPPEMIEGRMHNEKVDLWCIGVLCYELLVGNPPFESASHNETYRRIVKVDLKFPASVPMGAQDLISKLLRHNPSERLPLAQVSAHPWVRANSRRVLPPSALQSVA
Description: Inhibition of Aurora B kinase (unknown origin) upto 10000 nM

[16] = target: Aryl hydrocarbon receptor (Homo sapiens, UniProt P35869); assay: Inhibition of AhR (unknown origin) upto 10000 nM; conditions: 10 µM
Chain of Aryl hydrocarbon receptor (P35869 whole entry): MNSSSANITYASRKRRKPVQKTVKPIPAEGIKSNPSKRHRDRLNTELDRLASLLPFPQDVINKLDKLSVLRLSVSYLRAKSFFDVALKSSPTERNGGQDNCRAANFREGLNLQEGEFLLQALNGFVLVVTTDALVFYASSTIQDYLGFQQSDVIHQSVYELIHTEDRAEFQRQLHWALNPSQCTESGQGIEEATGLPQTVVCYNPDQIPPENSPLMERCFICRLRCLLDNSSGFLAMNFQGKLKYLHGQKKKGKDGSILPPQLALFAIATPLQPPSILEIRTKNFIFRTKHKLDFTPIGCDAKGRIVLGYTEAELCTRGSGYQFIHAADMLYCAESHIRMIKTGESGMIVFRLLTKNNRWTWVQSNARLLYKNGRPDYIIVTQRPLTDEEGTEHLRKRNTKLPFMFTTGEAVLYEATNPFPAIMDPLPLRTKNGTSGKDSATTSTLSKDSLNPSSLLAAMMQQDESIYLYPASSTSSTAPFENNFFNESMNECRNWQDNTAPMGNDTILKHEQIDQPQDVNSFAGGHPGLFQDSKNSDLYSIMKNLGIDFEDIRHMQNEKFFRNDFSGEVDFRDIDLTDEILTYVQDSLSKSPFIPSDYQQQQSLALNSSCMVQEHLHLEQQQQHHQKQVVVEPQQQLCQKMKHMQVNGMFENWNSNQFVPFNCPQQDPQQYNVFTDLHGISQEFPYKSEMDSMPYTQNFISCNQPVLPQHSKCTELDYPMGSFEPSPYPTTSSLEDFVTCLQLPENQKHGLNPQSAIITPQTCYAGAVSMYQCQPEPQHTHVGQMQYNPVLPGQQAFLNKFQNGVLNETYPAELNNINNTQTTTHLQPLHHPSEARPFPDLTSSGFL

[17] = AUC in dog at 10 mg/kg/day, po QD for 4 days; type: ADME, organism-based, Canis lupus familiaris; set-up: dose 10 mg/kg/day, time 4 day, route po; conditions: in vivo
[18] = Cmax in Wistar Han rat at 30 mg/kg/day, po QD for 7 days; type: ADME, organism-based; set-up: time 7 day, dose 30 mg/kg/day, route po; conditions: in vivo
[19] = target: T2, Hematopoietic prostaglandin D synthase (Rattus norvegicus, UniProt O35543); assay: Inhibition of H-PGDS in rat RBL cells assessed as reduction in A23187-induced PGD2 production pretreated for 30 mins followed by A23187 addition for 30 mins by RapidFire Mass spectrometry; type: cell-based
T2 sequence (O35543 whole entry): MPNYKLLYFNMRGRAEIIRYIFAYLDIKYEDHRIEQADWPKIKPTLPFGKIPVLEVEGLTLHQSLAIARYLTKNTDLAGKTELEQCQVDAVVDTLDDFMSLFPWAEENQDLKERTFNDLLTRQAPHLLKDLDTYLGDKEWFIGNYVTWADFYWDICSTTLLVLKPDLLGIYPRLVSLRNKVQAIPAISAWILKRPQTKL

[20] = Toxicity in Wistar Han rat assessed as seizure-like activity at 10 to 100 mg/kg/day, po QD for 7 days; type: organism-based; conditions: in vivo, 168 h, dose 10-100 mg/kg/day, time 7 day
[21] = Toxicity in C57BL/6N mouse assessed as seizures administered orally for 10 mins prior to unilateral eccentric contraction and QD for 43 days thereafter; conditions: in vivo, po, 1032 h, time 43 day
[22] = target: Voltage-gated inwardly rectifying potassium channel KCNH2 (Homo sapiens, UniProt Q12809); assay: Inhibition of hERG
[23] = test system: Mus musculus; assay: Anti-inflammatory activity against C57BL6/N mouse assessed as reduction in LPS-induced PGD2 level in plasma administered orally with compound and 1 hr later treated with LPS and measured after 30 mins by LC-MS/MS analysis; type: functional; conditions: route po, time 1.5 hrs
[24] = target: Beta-2 adrenergic receptor (Homo sapiens) (UniProt P07550); conditions: dose <= 10000.0 nM
Chain of Beta-2 adrenergic receptor (Homo sapiens) (P07550 whole entry, looked up): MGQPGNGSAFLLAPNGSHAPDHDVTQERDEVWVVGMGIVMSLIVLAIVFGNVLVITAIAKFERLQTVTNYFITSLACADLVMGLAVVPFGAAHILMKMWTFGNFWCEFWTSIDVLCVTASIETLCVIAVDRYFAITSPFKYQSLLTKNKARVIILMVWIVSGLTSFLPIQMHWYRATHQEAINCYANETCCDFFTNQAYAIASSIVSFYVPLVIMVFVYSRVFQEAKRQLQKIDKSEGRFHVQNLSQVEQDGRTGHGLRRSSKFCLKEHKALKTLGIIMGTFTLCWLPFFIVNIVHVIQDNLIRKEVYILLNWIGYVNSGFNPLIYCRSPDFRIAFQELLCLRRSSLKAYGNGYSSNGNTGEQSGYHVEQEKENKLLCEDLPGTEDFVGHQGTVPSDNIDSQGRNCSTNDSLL
Description: Inhibition of beta2 adrenergic receptor (unknown origin) upto 10000 nM

[25] = Toxicity in compound 48/80-treated C57BL/6J mouse assessed as seizures administered orally with compound and 1 hr later treated with compound 48/80 for 7 mins; conditions: in vivo, po, 1.117 h, time 67 min
[26] = Toxicity in Wistar Han rat assessed as necrosis and inflammatory cell infiltrates in heart at 100 mg/kg/day, po administered QD for 7 days by microscopic analysis; type: organism-based; conditions: in vivo, 168 h, time 7 day
[27] = Toxicity in dog assessed as body weight loss at 75 mg/kg/day, po QD for 4 days; type: organism-based, Canis lupus familiaris; conditions: in vivo, 96 h, time 4 day
[28] = Toxicity in dog assessed as tolerance upto 30 mg/kg/day, po QD for 4 days; type: organism-based, Canis lupus familiaris; conditions: in vivo, 96 h, time 4 day
[29] = target: Nuclear receptor subfamily 1 group I member 2 (Homo sapiens, UniProt O75469); assay: Inhibition of PXR (unknown origin) upto 10000 nM; conditions: 10 µM
Chain of Nuclear receptor subfamily 1 group I member 2 (O75469 whole entry): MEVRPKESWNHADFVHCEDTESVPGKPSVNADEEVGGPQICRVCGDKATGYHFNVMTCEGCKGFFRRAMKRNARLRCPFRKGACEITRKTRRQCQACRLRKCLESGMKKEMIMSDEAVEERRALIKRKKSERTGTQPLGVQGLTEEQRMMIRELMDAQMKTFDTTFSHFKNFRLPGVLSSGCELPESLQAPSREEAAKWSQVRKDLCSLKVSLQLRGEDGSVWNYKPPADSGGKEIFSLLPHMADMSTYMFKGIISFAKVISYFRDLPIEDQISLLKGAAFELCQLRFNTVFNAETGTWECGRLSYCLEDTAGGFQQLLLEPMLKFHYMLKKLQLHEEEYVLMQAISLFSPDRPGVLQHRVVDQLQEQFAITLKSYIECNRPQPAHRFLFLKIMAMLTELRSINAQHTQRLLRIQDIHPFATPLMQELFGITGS

[30] = target: T1, Hematopoietic prostaglandin D synthase; assay: Inhibition of human H-PGDS expressed in Escherichia coli BL21 DE3 cells assessed as reduction in PGD2 production using PGH2 as substrate by RapidFire High Throughput Mass spectrometry
[31] = Genotoxicity in Salmonella typhimurium in absence of metabolic activation by Ames test; type: toxicity; conditions: salmonella enterica subsp. enterica serovar typhimurium
[32] = Toxicity in dog assessed as cytoplasmic alteration in zona fasciculata in adrenal gland at 75 mg/kg/day, po QD for 4 days by microscopic analysis; type: organism-based, Canis lupus familiaris; conditions: in vivo, 96 h, time 4 day
[33] = Cmax in mdx mouse administered orally 10 mins prior to unilateral eccentric contraction and QD for 43 days thereafter; type: ADME; set-up: time 43 day, route po; conditions: in vivo, po
[34] = Toxicity in dog assessed as decreased cortical lymphoid cellularity in thymus at 75 mg/kg/day, po QD for 4 days by microscopic analysis; type: organism-based, Canis lupus familiaris; conditions: in vivo, 96 h, time 4 day
[35] = target: Histamine H1 receptor (Homo sapiens) (UniProt P35367); conditions: dose <= 10000.0 nM
Chain of Histamine H1 receptor (Homo sapiens) (P35367 whole entry): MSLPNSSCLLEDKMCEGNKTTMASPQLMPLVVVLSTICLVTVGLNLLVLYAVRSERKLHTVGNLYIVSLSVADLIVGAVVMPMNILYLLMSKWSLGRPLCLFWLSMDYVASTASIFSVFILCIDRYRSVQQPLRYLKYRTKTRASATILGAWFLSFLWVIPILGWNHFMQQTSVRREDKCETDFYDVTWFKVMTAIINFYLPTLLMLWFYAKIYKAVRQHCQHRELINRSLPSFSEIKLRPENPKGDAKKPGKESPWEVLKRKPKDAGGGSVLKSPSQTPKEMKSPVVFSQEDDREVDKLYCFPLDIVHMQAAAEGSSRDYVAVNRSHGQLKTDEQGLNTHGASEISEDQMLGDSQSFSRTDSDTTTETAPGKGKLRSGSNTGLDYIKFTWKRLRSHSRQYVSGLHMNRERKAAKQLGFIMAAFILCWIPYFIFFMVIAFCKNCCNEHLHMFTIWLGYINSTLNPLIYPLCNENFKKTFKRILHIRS
Description: Inhibition of histamine H1 receptor (unknown origin) upto 10000 nM

[36] = Toxicity in dog assessed as diffuse degenration/regeneration and multifocal erosion/ulcreation in small intestine and oesophagus at 75 mg/kg/day, po QD for 4 days by microscopic analysis; type: organism-based, Canis lupus familiaris; conditions: in vivo, 96 h, time 4 day
[37] = Toxicity in LPS-treated C57BL6/N mouse assessed as seizures administered orally with compound and 1 hr later treated with LPS and measured after 30 mins; conditions: in vivo, po, 1.5 h
[38] = target: Substance-P receptor (Homo sapiens) (UniProt P25103); conditions: dose <= 10000.0 nM
Chain of Substance-P receptor (Homo sapiens) (P25103 whole entry): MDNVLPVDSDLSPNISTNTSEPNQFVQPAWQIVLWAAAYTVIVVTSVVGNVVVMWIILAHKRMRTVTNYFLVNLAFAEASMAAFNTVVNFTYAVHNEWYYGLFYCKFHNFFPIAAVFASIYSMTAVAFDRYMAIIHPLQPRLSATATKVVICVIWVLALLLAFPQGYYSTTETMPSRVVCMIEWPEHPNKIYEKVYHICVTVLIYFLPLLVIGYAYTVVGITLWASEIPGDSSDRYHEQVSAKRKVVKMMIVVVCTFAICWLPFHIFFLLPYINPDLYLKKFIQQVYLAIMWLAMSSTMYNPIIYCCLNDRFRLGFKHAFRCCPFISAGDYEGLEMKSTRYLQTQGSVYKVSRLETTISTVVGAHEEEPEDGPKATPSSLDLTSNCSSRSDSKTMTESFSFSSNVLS
Description: Inhibition of tachykinin NK1 receptor (unknown origin) upto 10000 nM

[39] = Toxicity in Wistar Han rat assessed as tolerance at 30 mg/kg/day, po administered QD for 7 days; type: organism-based; conditions: in vivo, 168 h, time 7 day

**Q.** Which IC50 [1] does the source give for `CC(C)(O)[C@H]1CC[C@H](NC(=O)c2cnc3nc(C4CC4)ccc3c2)CC1` here?
**A.** The IC50 was over 100000 nM.

**Q.** What about the fAUClast [2] of the same compound?
**A.** The fAUClast was 0.2 µg·h/mL.

**Q.** What about the ED50 [3] of the same compound?
**A.** Its ED50 is 1.1 mg/kg.

**Q.** What about the fCmax [4] of the same compound?
**A.** Its fCmax is 370 ng/mL.

**Q.** And the Vd [5]?
**A.** Its Vd is 1.6 L/kg.

**Q.** And the Kd [6]?
**A.** The Kd was 0.24 nM.

**Q.** What about the Activity [7] of the same compound?
**A.** Its Activity is “Toxic”.

**Q.** And the inhibition [8]?
**A.** The inhibition was “inactive”.

**Q.** What about the Cmax [9] of the same compound?
**A.** Its Cmax is 8700 ng/mL.

**Q.** And the inhibition [10]?
**A.** Its inhibition is “inactive”.

**Q.** And the inhibition [11]?
**A.** Its inhibition is “inactive”.

**Q.** And the bioavailability [12]?
**A.** The bioavailability was 92%.

**Q.** And the ED50 [13]?
**A.** Its ED50 is 0.0138 mg/kg.

**Q.** What about the ED50 [14] of the same compound?
**A.** The ED50 was 0.009 mg/kg.

**Q.** And the inhibition [15]?
**A.** The inhibition was “inactive”.

**Q.** And the “inhibition (INH)” value [16]?
**A.** The value was “Not Active”.

**Q.** What about the AUC at 96 h [17] of the same compound?
**A.** Its AUC at 96 h is 120 µg·h/mL.

**Q.** What about the Cmax [18] of the same compound?
**A.** The Cmax was 24000 ng/mL.

**Q.** And the EC50 [19]?
**A.** Its EC50 is 42 nM.

**Q.** And the Activity [20]?
**A.** Its Activity is “Non-Toxic”.

**Q.** What about the Activity [21] of the same compound?
**A.** Its Activity is “Non-Toxic”.

**Q.** What about the IC50 [22] of the same compound?
**A.** Its IC50 is over 80000 nM.

**Q.** What about the ED50 [23] of the same compound?
**A.** The ED50 was 0.0031 mg/kg.

**Q.** What about the inhibition [24] of the same compound?
**A.** Its inhibition is “inactive”.

**Q.** And the Activity [25]?
**A.** The Activity was “Non-Toxic”.

**Q.** And the Activity [26]?
**A.** The Activity was “Toxic”.

**Q.** What about the Activity [27] of the same compound?
**A.** The Activity was “Toxic”.

**Q.** And the Activity [28]?
**A.** The Activity was “Non-Toxic”.

**Q.** And the “inhibition (INH)” value [29]?
**A.** Its value is “Not Active”.

**Q.** What about the IC50 [30] of the same compound?
**A.** Its IC50 is 9.4 nM.

**Q.** What about the Activity [31] of the same compound?
**A.** The Activity was “Non-Toxic”.

**Q.** And the Activity [32]?
**A.** Its Activity is “Toxic”.

**Q.** What about the Cmax [33] of the same compound?
**A.** Its Cmax is 260 ng/mL.

**Q.** And the Activity [34]?
**A.** Its Activity is “Toxic”.

**Q.** What about the inhibition [35] of the same compound?
**A.** Its inhibition is “inactive”.

**Q.** What about the Activity [36] of the same compound?
**A.** The Activity was “Toxic”.

**Q.** What about the Activity [37] of the same compound?
**A.** The Activity was “Non-Toxic”.

**Q.** And the inhibition [38]?
**A.** Its inhibition is “inactive”.

**Q.** What about the Activity [39] of the same compound?
**A.** Its Activity is “Non-Toxic”.
